In patent publication US20020059032A1, “Rational selection of putative peptides from identified nucleotide or peptide sequences” (priority 1999, published 2002):
Each block holds one compound with its values, some of them ahead of it. Where a SMILES comes first, the peptide text is derived from it.

How the values were obtained:
[1] = molecular target: guinea pig brain membranes; assay: Binding test with guinea pig brain membranes; settings: tested on guinea pig brain membranes; read-out: IC50 = 100 μM
[2] = molecular target: rat brain membranes; assay: Binding test with rat brain membranes
Procedure: (§1) The membranes are placed in a buffer (50 mM of Tris-HCl, 5 mM of MgCl2 and 0.1 g/l of bacitracin) at the desired protein concentration (iodized CCK bond, 0.1 mg of protein/ml; iodized gastrin bond: 0.5 mg of proteins/ml). They are then incubated in the presence of a labelled ligand in a total volume of 500 μl (about 10 pM for the iodized CCK8, 20 pM for the iodized gastrin13), 50-80 minutes at 25° C., and in the presence or absence of cold agonists. The reaction is stopped with 3 ml of additional BSA buffer (20 g/l) at 4° C., the tubes are centrifuged at 10,000×g, the supernatant is drawn off and the radioactivity associated with the precipitate is evaluated with a γ counter.
(§2) Membrane Preparations of Different Rat Tissues and Organs
(§3) 1) The rats are sacrificed by rupturing their cervical vertebrae, and the different tissues are removed and washed several times in a large volume of NaCl at 9 per thousand.
(§4) The following steps are carried at 4° C.
(§5) 2) The tissues and organs are transferred, still separately, in a sucrose buffer containing:
(§6) They are then cut up carefully with the aid of fine scissors and crushed using an ultraturax apparatus. […]
(§7) 8) The protein content in the membrane suspensions is evaluated using a Bradford dosage device (BioRad, acording to the manufacturer's instructions). […]

[3] = tested on: Jurkat T cells; assay: Binding test with Jurkat T cells; parameters: species or system human
Procedure: Bonding of Radiolabelled Agonists to Jurkat T cells
Culture Conditions of the Cells of the Jurkat T Human Lymphocytic Line
The Jurkat cells are cultured in an RPMI 1640 medium supplemented with foetal calf serum (10% volume/volume) and antibiotics (50 U/ml of penicillin and 50 μg/ml of streptomycin) serum in a humid incubator at 37° C. under an atmosphere of 5% CO2 in air.
The cells are obtained by centrifugation (514 g, 5 minutes), then are washed twice in a standard medium containing: 98 mM of NaCl; 6 mM of KCl; 2.5 mM of NaH2PO4; 1.5 mM of CaCl2, 1 mM of MgCl2, 5 mM of Na-pyruvate; 5 mM of Na-fumarate; 5 mM of Na-glutamate; 2 mM of glutamine; 11.5 mM of glucose; 24.5 mM of Hepes (N-[2-hydroxyethyl]piperazine-N′-[2-ethane sulfonic acid]); 0.5 g/l of bacitracin; 0.1 g/l of soya bean trypsin inhibitor, pH 7.4
Experiments with agonist bonds labelled with iodine 125 (about 50 picomolars) are carried out at 37° C. under agitation for 45-60 minutes in a final volume of 0.5 ml of standard medium containing 2×10^6 cells (4×10^6 cells/ml) and in the presence or absence of competitors. The non-specific bond is evaluated in the presence of a micromolar concentration of cold homologous peptide.

[4] = tested on: different rat organ membranes; assay: Binding test with different rat organ membranes
Procedure: as §1, §2, §3, §4, §5, §6, §7

[5] = tested on: HeLa cells; assay: Binding test with HeLa cells
Procedure: Studies of the Bonding of Labelled Agonists on the HeLa Cell Line
The cells are cultured in a DMEM medium supplemented with 10% foetal calf serum, 0.5% of antibiotics (penicillin/streptomycin) and 0.5% of glutamine.
24 to 48 hours before experimentation, the cells are replicated in 24-well plates with approximately 100,000 cells per well and per ml.
The bonding studies are carried out with a BindH buffer
For the experiment, the medium is removed and the cells washed twice with 1 ml of buffer. The reaction medium (500 μl) containing the labelled agonist is added into each well in the presence or absence of the cold homologous agonist and the plates are incubated for one hour at 37° C.
The reaction is stopped by removal of the reaction volume and the wells are rinsed twice with 1 ml of BindH with 20% BSA.
The cells are lysed with 500 μl of 1N soda for 20 minutes at ambient temperature and the radioactivity associated with the lysate is evaluated using a gamma counter.

Compound: ELGRGPGPPLPERGA [Example 5, H-ELGRGPGPPLPERGA-NH2]
- IC50 [2]: 90 µM
- Results, binding test with Jurkat T cells (positive/negative) [3]: negative

Compound: GQDSIEPVPGQK [Example 1, H-GQDSIEPVPGQK-NH2]
- Results, binding test with different rat organ membranes (positive/negative) [4]: negative
- Results, binding test with Jurkat T cells (positive/negative) [3]: negative

Compound: PLEPSGG [Example 4, H-PLEPSGG-NH2]
- Results, binding test with different rat organ membranes (positive/negative) [4]: negative

Compound: YERNRQAAAANPENSRGK [Example 6, H-YERNRQAAAANPENSRGK-NH2]
- IC50 [2]: 90 µM
- Results, binding test with Jurkat T cells (positive/negative) [3]: negative

Compound: YFKIDNVKKARVQWA [Example 3, H-YFKIDNVKKARVQWA-NH2]
- IC50 [5]: 50 µM

The next lines start with the values.

- IC50 [1]: 0.025 µM
Compound: CC(C)C[C@H](NC(=O)[C@H](CO)NC(=O)[C@H](Cc1c[nH]cn1)NC(=O)[C@H](CO)NC(=O)[C@H](CO)NC(=O)[C@@H](N)CO)C(=O)N[C@@H](CO)C(=O)N[C@@H](Cc1c[nH]cn1)C(=O)N[C@@H](CCCCN)C(N)=O [Example 68, H-SSSHSLSHK-NH2] (H-SSSHSLSHK-NH2)

- IC50 [1]: 0.037 µM
Compound: CC[C@H](C)[C@H](NC(=O)[C@H](CCCNC(=N)N)NC(=O)[C@H](CC(C)C)NC(=O)[C@H](CC(C)C)NC(=O)CNC(=O)[C@@H](NC(=O)[C@@H](N)Cc1c[nH]cn1)C(C)C)C(=O)N[C@@H](CCCCN)C(N)=O [Example 69, H-HVGLLRIK-NH2] (H-HVGLLRIK-NH2)
